The values that follow come from ChEMBL document CHEMBL1159215, “Isolation of antifungal and larvicidal constituents of Diplolophium buchanani by centrifugal partition chromatography” (1995).

The subject of one test is Cladosporium cucumerinum. Put plainly: Antifungal activity against Cladosporium cucumerinum assessed as inhibition of spore growth by TLC bioassay. The format is functional.
For test [1], the system named is Aedes aegypti. The test is described as follows: Larvicidal activity against Aedes aegypti larvae after 24 hrs […]. The format is functional.
Test [2] concerns Aedes aegypti. Put plainly: Larvicidal activity against Aedes aegypti larvae at 400 ppm after 24 hrs […]. The test is classed as functional, organism-based.

SMILES strings stand for the structures. Activity calls are given as the source filed them. The calls are words filed in the database; no cut-off is given here.

`CC1(C)O[C@H]1COc1c2ccoc2cc2oc(=O)ccc12` [OXYPEUCEDANIN]: the Activity with Cladosporium cucumerinum was 1 µg. In addition, in the test on Aedes aegypti [1], the LD100 stood at 25 ppm.

For the compound `CC(C)(O)[C@H](O)COc1c2ccoc2cc2oc(=O)ccc12` [OXYPEUCEDANIN HYDRATE], in the test on Cladosporium cucumerinum, the Activity is 10 µg. In addition, the result in the test on Aedes aegypti [2] and in the test with Aedes aegypti [1] was inactive.

For the compound `Clc1ccc(COC(Cn2ccnc2)c2ccc(Cl)cc2Cl)c(Cl)c1` (configuration not stated) [MICONAZOLE], the Activity in the test with Cladosporium cucumerinum amounted to 1 µg.

Regarding `C/C=C\c1cc(OC)c(OC)cc1OC` [CIS-ASARONE], the LD100 with Aedes aegypti [1] is 16 ppm.
